Assays:
Assay in all cases: Post-emergence herbicidal glasshouse test, percentage damage to the plant
Type in all cases: in vivo
Details in all cases: post-emergence, 1000 g/ha, evaluated after 13 days
[1] = tested on: Alopecurus myosuroides (ALOMY)
Description: (§1) Seeds of a variety of test species are sown in standard soil in pots:—Solanum nigrum (SOLNI), Amaranthus retoflexus (AMARE), Setaria faberi (SETFA), Alopecurus myosuroides (ALOMY), Echinochloa crus-galli (ECHCG), Ipomoea hederacea (IPOHE). After 8 days cultivation (post-emergence) under controlled conditions in a glasshouse (at 24/16° C., day/night; 14 hours light; 65% humidity), the plants are sprayed with an aqueous spray solution derived from the formulation of the technical active ingredient in acetone/water (50:50) solution containing 0.5% Tween 20 (polyoxyethelyene sorbitan monolaurate, CAS RN 9005-64-5). Compounds are applied at 1000 g/ha. The test plants are then grown in a glasshouse under controlled conditions in a glasshouse (at 24/16° C., day/night; 14 hours light; 65% humidity) and watered twice daily. After 13 days, the test is evaluated for the percentage damage caused to the plant. The biological activities are shown in the following table on a five point scale (5=80-100%; 4=60-79%; 3=40-59%; 2=20-39%; 1=0-19%). A comparative experiment is conducted to compare the biological efficacy of a compound of the present invention with those of WO 2011/045271. The test is performed as outlined above using the following compounds. Three different application rates are employed (250 g/ha, 500 g/ha and 1000 g/ha).

[2] = tested on: Amaranthus retoflexus (AMARE)
Description: as §1

[3] = tested on: Echinochloa crus-galli (ECHCG)
Description: as §1

[4] = tested on: Ipomoea hederacea (IPOHE)
Description: as §1

Setaria faberi (SETFA) = tested on: Setaria faberi (SETFA)
Description: as §1

Solanum nigrum (SOLNI) = tested on: Solanum nigrum (SOLNI)
Description: as §1

| Compound | POST Application ALOMY, percentage damage (five point scale) [1] | POST Application AMARE, percentage damage (five point scale) [2] | POST Application ECHCG, percentage damage (five point scale) [3] | POST Application IPOHE, percentage damage (five point scale) [4] | POST Application SETFA, percentage damage (five point scale) (Setaria faberi (SETFA)) | POST Application SOLNI, percentage damage (five point scale) (Solanum nigrum (SOLNI)) |
| --- | --- | --- | --- | --- | --- | --- |
| C=C(C)C1=NN(C)C(=O)C(n2c(Cl)c(Cl)c3ccccc32)C1=O (stereo not drawn) [Compound 2.016] | 1 (1=0-19%) | 4 (4=60-79%) | 1 (1=0-19%) | 2 (2=20-39%) | 1 (1=0-19%) | 4 (4=60-79%) |
| CCSC1=NN(C)C(=O)C(n2c(Cl)c(Cl)c3ccccc32)C1=O (stereo not drawn) [Compound 2.017] | 1 (1=0-19%) | 4 (4=60-79%) | 2 (2=20-39%) | 1 (1=0-19%) | 1 (1=0-19%) | 3 (3=40-59%) |
| CCCOC1=NN(C)C(=O)C(n2c(Cl)c(Cl)c3ccccc32)C1=O (stereo not drawn) [Compound 2.018] | 1 (1=0-19%) | 3 (3=40-59%) | 1 (1=0-19%) | 4 (4=60-79%) | 1 (1=0-19%) | 4 (4=60-79%) |
| CC(C)COC1=NN(C)C(=O)C(n2c(Cl)c(Cl)c3ccccc32)C1=O (stereo not drawn) [Compound 2.019] | 1 (1=0-19%) | 4 (4=60-79%) | 1 (1=0-19%) | 2 (2=20-39%) | 1 (1=0-19%) | 4 (4=60-79%) |
| CN1N=C(OCC(F)F)C(=O)C(n2c(Cl)c(Cl)c3ccccc32)C1=O (stereo not drawn) [Compound 2.020] | 1 (1=0-19%) | 4 (4=60-79%) | 1 (1=0-19%) | 3 (3=40-59%) | 1 (1=0-19%) | 4 (4=60-79%) |
| CN(C)C1=NN(C)C(=O)C(n2c(Cl)c(Cl)c3ccccc32)C1=O (stereo not drawn) [Compound 2.021] | 2 (2=20-39%) | 3 (3=40-59%) | 1 (1=0-19%) | 3 (3=40-59%) | 1 (1=0-19%) | 4 (4=60-79%) |
| COC1=NN(C)C(=O)C(n2c(Cl)c(Cl)c3ccccc32)C1=O (stereo not drawn) [Compound 2.022] | 1 (1=0-19%) | 4 (4=60-79%) | 1 (1=0-19%) | 5 (5=80-100%) | 1 (1=0-19%) | 5 (5=80-100%) |
| CCOC1=NN(C)C(=O)C(n2c(Cl)c(Cl)c3ccccc32)C1=O (stereo not drawn) [Compound 2.023] | 1 (1=0-19%) | 2 (2=20-39%) | 1 (1=0-19%) | 4 (4=60-79%) | 1 (1=0-19%) | 4 (4=60-79%) |
| CN1N=C(OCC(F)(F)F)C(=O)C(n2c(Cl)c(Cl)c3ccccc32)C1=O (stereo not drawn) [Compound 2.024] | 1 (1=0-19%) | 2 (2=20-39%) | 1 (1=0-19%) | 1 (1=0-19%) | 1 (1=0-19%) | 2 (2=20-39%) |
| C=CCC1=NN(C)C(=O)C(n2c(Cl)c(Cl)c3ccccc32)C1=O (stereo not drawn) [Compound 2.025] | 1 (1=0-19%) | 2 (2=20-39%) | 2 (2=20-39%) | 5 (5=80-100%) | 2 (2=20-39%) | 5 (5=80-100%) |
| CN1N=C(C2CC2)C(=O)C(n2c(Cl)c(Cl)c3ccccc32)C1=O (stereo not drawn) [Compound 2.026] | 1 (1=0-19%) | 4 (4=60-79%) | 1 (1=0-19%) | 5 (5=80-100%) | 2 (2=20-39%) | 5 (5=80-100%) |
| CCC1=NN(C)C(=O)C(n2c(Cl)c(Cl)c3ccccc32)C1=O (stereo not drawn) [Compound 2.027] | 1 (1=0-19%) | 4 (4=60-79%) | 1 (1=0-19%) | 5 (5=80-100%) | 1 (1=0-19%) | 5 (5=80-100%) |
| CN1N=C(Br)C(=O)C(n2c(Cl)c(Cl)c3ccccc32)C1=O (stereo not drawn) [Compound 2.028] | 1 (1=0-19%) | 5 (5=80-100%) | 1 (1=0-19%) | 5 (5=80-100%) | 1 (1=0-19%) | 5 (5=80-100%) |
| Cc1nn(C)c(=O)c(-n2c(Cl)c(Cl)c3ccccc32)c1OC(=O)SC(C)C [Compound 3.001, [5-(2,3-dichloroindol-1-yl)-1,3-dimethyl-6-oxo-pyridazin-4-yl]isopropylsulfanylformate] | 1 (1=0-19%) | 5 (5=80-100%) | 1 (1=0-19%) | 5 (5=80-100%) | 1 (1=0-19%) | 5 (5=80-100%) |
| Cc1nn(C)c(=O)c(-n2c(Cl)c(Cl)c3ccccc32)c1OC(=O)N1CCOCC1 [Compound 3.002] | 1 (1=0-19%) | 2 (2=20-39%) | 1 (1=0-19%) | 5 (5=80-100%) | 1 (1=0-19%) | 5 (5=80-100%) |
| Cc1nn(C)c(=O)c(-n2c(Cl)c(Cl)c3ccccc32)c1OC(=O)C(C)C [Compound 3.003] | 1 (1=0-19%) | 5 (5=80-100%) | 4 (4=60-79%) | 5 (5=80-100%) | 1 (1=0-19%) | 5 (5=80-100%) |
| COC(=O)Oc1c(C)nn(C)c(=O)c1-n1c(Cl)c(Cl)c2ccccc21 [Compound 3.004] | 2 (2=20-39%) | 5 (5=80-100%) | 4 (4=60-79%) | 5 (5=80-100%) | 2 (2=20-39%) | 5 (5=80-100%) |
| COC(=O)Oc1c(C)nn(C)c(=O)c1-n1nc(Cl)c2ccccc21 [Compound 3.005] | 1 (1=0-19%) | 4 (4=60-79%) | 3 (3=40-59%) | 5 (5=80-100%) | 1 (1=0-19%) | 5 (5=80-100%) |
| CC(=O)Oc1c(C)nn(C)c(=O)c1-n1nc(Cl)c2ccccc21 [Compound 3.006] | 2 (2=20-39%) | 4 (4=60-79%) | 4 (4=60-79%) | 5 (5=80-100%) | 1 (1=0-19%) | 5 (5=80-100%) |
| Cc1nn(C)c(=O)c(-n2c(Cl)c(Cl)c3ccccc32)c1OC(=O)SC(C)(C)C [Compound 3.007] | 1 (1=0-19%) | 5 (5=80-100%) | 1 (1=0-19%) | 5 (5=80-100%) | 1 (1=0-19%) | 5 (5=80-100%) |

From US9049864B2, “Pyridazinone herbicidal compounds” (Syngenta Limited, priority 2012, dated 2015)
